Experimental data taken from patent US9512176B2, “Age inhibitors” (Centre National de la Recherche Scientifique, priority 2005, dated 2016).
Non-standard residues stand in square brackets, D forms with d. Residues, ends and D or L forms follow the SMILES beside them. Dap = NC[C@H](N)C(=O)O

Assays:
[1] = test system: ribonuclease A; experiment: Enzymatic activity of ribonuclease A after treatment with methylglyoxal and inhibitors (methylene blue RNA staining); assay type: biochemical; conditions: ribonuclease A treated with methylglyoxal (MG) + inhibitor in equimolar quantity, 37° C.; control RNase 100, RNase + methylglyoxal 10.11%
Protocol: (§1) Ribonuclease A and lysozyme (10 mg/ml) are incubated in the presence of methylglyoxal (10 mM) or in the presence of methylglyoxal and one of the inhibitors according to the present invention in an equimolar quantity at 37° C. After 48 hours of incubation, the proteins are analyzed by polyacrylamide gel electrophoresis (8%-16% SDS PAGE gel).
The enzymatic activity of ribonuclease A after treatment with methylglyoxal and the various inhibitors according to the present invention is measured using the methylene blue RNA staining technique of Greiner-Stöffele et al. (Anal. Biochem. (1996) 240, 24).

[2] = test system: ribonuclease A; experiment: SDS PAGE electrophoresis of ribonuclease A incubated with methylglyoxal and inhibitor; assay type: biochemical
Protocol: as §1
The AGE inhibitors according to the present invention, namely L-DAPA-L-Leu (example 1) and L-DAPA-L-Ile (example 18), or AG (10 mM) are incubated with MG and ribonuclease A for […] at 37° C.

[3] = test system: EA.hy 926 cell line; experiment: Growth of EA.hy 926 endothelial cells with MG scavengers and/or methylglyoxal (MTT); assay type: cell-based, human; conditions: for viability at 1000 µM: Homo sapiens, EA.hy 926, scavenger 1 mM + methylglyoxal 600 μM, relative to untreated control cells, MG alone 24, read-out: Cells + MG scavengers + Methylglyoxal (B); for viability at 1000 µM / Cells + MG scavengers (A): 48 hours, mean of 3 experiments; for Difference (B) − (A): Table 2, cells with scavenger + MG minus cells with scavenger alone; for Cells + MG scavengers (A): scavenger 1 mM, no methylglyoxal, number of cells relative to untreated control cells; for effect against suppression of cell growth by MG: scavenger + methylglyoxal
Protocol: The cells used for the test are from the EA.hy 926 cell line, which are endothelial cells obtained by the hybridization of human umbilical vein endothelial cells (HUVECs) with lung cancer cells (A549). The EA.hy 926 endothelial cells are incubated in Dulbecco's modified Eagle's Medium (DMEM) enriched with 10% fetal calf serum. The cells are incubated in 12-well plates. Each well initially contains 100,000 cells. Cell growth is achieved by incubating the cells in 2 ml of culture medium after adding or not adding the various potential inhibitors (1 mM) and/or methylglyoxal (600 μM) for 48 hours at 37° C. in a moist atmosphere with 5% CO2.
The number of cells is evaluated in the following way:
The cells are stained using the (4,5-dimethylthiazol-2-yl)-2,5-diphenyltetrazolium bromide (MTT) assay. MTT penetrates in the cell where it is converted into formazan. The quantity of formazan formed is proportional to the number of living cells.
The results are expressed as a relative percentage of the number of cells after treatment compared to the number of control cells without treatment [100*OD (treated cells)/OD (control cells)]. Detection is carried out by UV/visible spectrophotometry at 570 nm.
Principle: MTT (yellow) penetrates the cell and is converted into an insoluble blue compound, formazan, by cleavage of its tetrazolium rings by the mitochondrial dehydrogenase enzymes of living cells. Formazan is solubilized by isopropanol. The number of cells is proportional to the quantity of formazan formed and its absorbance.

[4] = Battah et al. 2002; cited from earlier work
[5] = test system: lysozyme; experiment: SDS PAGE electrophoresis of lysozyme incubated with methylglyoxal and inhibitor; assay type: biochemical; conditions: lysozyme 10 mg/ml, methylglyoxal 10 mM, inhibitor equimolar, 37° C., 48 hours
Protocol: as §1

[6] = test system: RNase A; experiment: RNase A modifications induced by methylglyoxal (HPLC); assay type: biochemical; conditions: RNase A 0.08 mM, methylglyoxal 32 mM, compound 38 mM, 21 hours at 37° C.
Protocol: FIGS. 11 to 13 present the results obtained by HPLC for three compounds according to the present invention, L-DAPA-L-Ile (example 18), L-DAPA-L-Val (example 23) and L-DAPA-L-Leu (example 1), on RNase A modifications induced by methylglyoxal. HPLC conditions are as follows: C-18, Symmetry 300 (4.6×250 mm) column, injection volume 100 μl of reaction mixture diluted to 1/10; flow 1 ml/min; temperature 40° C.; solvent A: H2O+0.1% TFA; solvent B: 60/40 CH3CN/H2O+0.1% TFA; linear gradient of 20% B to 80% B in 20 minutes; detection: UV at 215 nm: PDA (chromatograms extracted at 215 nm).

[7] = test system: Human insulin; experiment: Modification of insulin by methylglyoxal (HPLC); assay type: biochemical; conditions: insulin 0.034 mM, methylglyoxal 3.4 mM, scavenger 4.08 mM, pH 7.45, 37° C.
Protocol: FIG. 1 presents the comparative effects of dicarbonyl scavengers in the form of dihydrochloride according to the present invention and the comparison with DAPA on the modification of insulin (Ins) by methylglyoxal (MG). The percentage of insulin is indicated following incubation with methylglyoxal in the presence or absence of dicarbonyl scavengers. Insulin (0.034 mM) is incubated in vitro in a 10 mM phosphate buffer, pH 7.45 (containing 0.1 M NaCl) with methylglyoxal (3.4 mM) in the presence of dicarbonyl scavengers (4.08 mM) for 21 hours at 37° C. Insulin concentration is measured by HPLC (same conditions as in FIG. 3).
FIGS. 3 to 8 present the results obtained by HPLC for two compounds according to the present invention, L-DAPA-L-Leu (example 1) and L-DAPA-L-Val (example 23), on insulin modifications induced by methylglyoxal. It can be observed that these modifications are prevented. The HPLC conditions are as follows: C-18, Symmetry 300 (4.6×250 mm) column, injection volume 100 μl of reaction mixture; flow 1 ml/min; temperature 40° C.; solvent A: H2O+0.1% TFA; solvent B: 60/40 CH3CN/H2O+0.1% TFA; linear gradient of 50% B to 55% B in 15 minutes; detection: UV at 215 nm: PDA (chromatograms extracted at 220 nm).
Human insulin (Ins) is incubated with methylglyoxal (MG) under physiological conditions. After 24 hours, the insulin is completely modified, as illustrated in FIG. 1 (Ins+MG).
On the other hand, insulin is incubated with methylglyoxal in the presence of an equimolar quantity of the AGE inhibitors according to the present invention under physiological conditions.

[8] = test system: somatostatin-14; experiment: Somatostatin-14 modifications induced by methylglyoxal (HPLC); assay type: biochemical; conditions: somatostatin-14 0.03 mm, methylglyoxal 3.6 mM, compound 4.3 mM, 24 hours at 37° C.
Protocol: FIGS. 9 and 10 present the results obtained by HPLC for two compounds according to the present invention, L-DAPA-L-Leu (example 1) and L-DAPA-L-Val (example 23), on somatostatin-14 modifications induced by methylglyoxal. HPLC conditions are as follows: C-18, Symmetry 300 (4.6×250 mm) column, injection volume 100 μl of reaction mixture; flow 1 ml/min; solvent A: H2O+0.1% TFA; solvent B: 80/20 CH3CN/H2O+0.1% TFA; linear gradient: from 20% B to 60% B in 15 minutes and isocratic from 60% B for 10 minutes; ambient temperature; detection: PDA (chromatograms extracted at 215 nm).
In these figures, (a) represents the results of somatostatin-14 alone; (b) represents the results of somatostatin-14+methylglyoxal; (c) represents the results of somatostatin-14+methylglyoxal+L-DAPA-L-Val (example 23) and (d) represents the results of somatostatin-14+methylglyoxal+L-DAPA-L-Leu (example 1).

[9] = test system: seven strains of Salmonella (six mixed strains, strain TA98); experiment: Ames test with and without human liver S9 fractions; assay type: cell-based; design: key to Six mixed strains / Strain TA98: −: non-mutagenic; +: mutagenic; conditions: for Six mixed strains / Strain TA98: mixture with methylglyoxal, 10/1/0.1 μM
Protocol: An Ames test was performed with L-DAPA-L-Leu (example 1) and L-DAPA-L-Val (example 23) alone and in combination with methylglyoxal on human liver S9 fractions and on seven strains of Salmonella.
The concentrations used in the Ames test were as follows: • L-DAPA-L-Leu alone or L-DAPA-L-Val alone: 10 μM, 1 μM and 0.1 μM. • L-DAPA-L-Leu/methylglyoxal mixture or L-DAPA-L-Val/methylglyoxal mixture: 10 μM, 1 μM and 0.1 μM. • Methylglyoxal: 10 μM.

[10] = Mutagenicity of DAPA (statement, no method given); conditions: no test described

Row | SMILES | Enzymatic activity (%) [1] | viability at 1000 µM [3] | Difference (B) − (A) [3] | Cells + MG scavengers (A) [3] | effect against suppression of cell growth by MG [3] | cell survival when incubated with MG [3] | modification of insulin by methylglyoxal [7] | also measured
1 | N=C(N)NN [Aminoguanidine, aminoguanidine, reference compound] | 70.52% | 92% | −5 | 97% | suppresses this process in a spectacular manner |  |  | protecting effect against structural modifications of ribonuclease A induced by MG, compared with the inhibitors of the invention ([2]; 10 mM, 40 hours at 37° C.): much less effective; better scavenger of methylglyoxal compared with metformin (factor) [4]: 450
2 | CC(C)[C@H](NC(=O)[C@@H](N)CN)C(=O)O [example 23, L-DAPA-L-Val.2HCl] (H-[Dap]-Val-OH) | 90.77% | 93% | −1 | 94% | same trend | 93% | prevented | protection from structural modifications (dimer form) caused by methylglyoxal [5]: provides protection; protection from structural modifications (dimer form) caused by methylglyoxal ([2]; ribonuclease A 10 mg/ml, methylglyoxal 10 mM, inhibitor equimolar, 37° C., 48 hours): provides protection; difference between number of cells growing with compound and with MG and compound ([3]; values in brackets): −3; RNase A modifications induced by methylglyoxal [6]: prevent the modifications to RNase A; somatostatin-14 modifications induced by methylglyoxal [8]: prevent the modifications induced by methylglyoxal; Six mixed strains ([9]; Human S9: No): −; Strain TA98 ([9]; Human S9: No): −; Six mixed strains ([9]; Human S9: Yes (metabolites)): −; Strain TA98 ([9]; Human S9: Yes (metabolites)): −; mutagenicity ([9]; alone or in combination with methylglyoxal, TA98, mixed strains, human liver S9 fractions): neither substance (L-DAPA-L-Leu or L-DAPA-L-Val) was mutagenic
3 | NCC(N)C(=O)O [D-DAPA, 2,3-diaminopropionic acid, reference compound] | 20.32% | 68% | −15 | 83% |  | 68% | prevents the modification of insulin by MG | mutagenicity [10]: appears to be mutagenic; toxicity with respect to EA cells ([3]; compound alone, 1 mM): cytotoxicity is higher
